According to patent US8431523B2, “Oligomeric biosurfactants in dermatocosmetic compositions” (priority 2006, dated 2013):
Non-standard residues stand in square brackets, D forms with d. Residues, ends and D or L forms follow the SMILES beside them. *: point of attachment. Palmitoyl = CCCCCCCCCCCCCCCC(=O)*; Myristoyl = CCCCCCCCCCCCCC(=O)*

Columns and labels:
fibroblast proliferation = assay: Cyquant Cell Proliferation Assay; type: cell-based
Procedure: For purposes of the present invention, proliferation is assessed using the Cyquant® Cell Proliferation Assay from Molecular Probes. This assay measures increased production of cellular nucleic acids that, in turn, results in increased binding of fluorescent dye.

P. cepacia = assay: Minimum inhibitory concentration, P. cepacia; type: cell-based, Pseudomonas cepacia
Source text: By “antimicrobial” activity is meant the ability to inhibit the growth of at least one microbial organism selected from the group consisting E. coli, P. aeruginosa, S. aureus and C. albicans, as confirmed by optical density measurement (“OD”). By “inhibition of growth” is meant reduction or absence of an increase greater than 5% in OD, a dimensionless measure of turbidity that is proportional to the amount of microbial cells present in a sample. For illustrative purposes, a OAB according to the present invention is added to a culture plate on which E. coli is present at a final concentration of about 5×10^3 cfu/ml. The plate is then incubated at about 37° C. for about 24 hours at which time the E. coli is resuspended by shaking, and OD is measured at about 600 nm. Thus, a reduction or absence of an increase greater than 5% in OD confirms the antimicrobial nature of the OAB with respect to E. coli. Minimum inhibitory concentration (“MIC”) is a method well-known to those of skill in the art for expressing antimicrobial activity. A compound to be tested is serially diluted into growth medium, inoculated with culture and then incubated. The MIC is the lowest dilution of compound that inhibits or prevents growth of the target microorganism.

Row | Compound | increase fibroblast proliferation (qualitative) (fibroblast proliferation) | MIC(P. cepacia) (P. cepacia) | increase fibroblast proliferation (fibroblast proliferation)
1 | CCCCCCCCCCCCCC(=O)N[C@@H](CCCCN)C(=O)N[C@H](C(=O)N[C@H](C(=O)N[C@@H](CCCCN)C(=O)N[C@@H](CO)C(N)=O)[C@@H](C)O)[C@@H](C)O [P190, Myr-KTTKS-amide] (Myristoyl-KTTKS-NH2) | increase fibroblast proliferation | ≤ 100 ppm | 
2 | CCCCCCCCCCCCCC(=O)N[C@H](C(=O)N[C@@H](CCCCN)C(=O)N[C@H](C(=O)N[C@H](C(=O)N[C@@H](CCCCN)C(N)=O)[C@@H](C)O)[C@@H](C)O)[C@@H](C)O [P228, Myr-TKTTK-amide] (Myristoyl-TKTTK-NH2) | increase fibroblast proliferation |  | 
3 | CCCCCCCCCCCCCC(=O)N[C@@H](CCCCN)C(=O)N[C@@H](CC(C)C)C(=O)N[C@@H](C)C(=O)N[C@@H](CCCCN)C(=O)N[C@@H](CCCCN)C(=O)N[C@@H](C)C(=O)O [P252, Myr-KLAKKA-acid] (Myristoyl-KLAKKA-OH) | increase fibroblast proliferation |  | 
4 | CCCCCCCCCCCCCC(=O)N[C@@H](C)C(=O)N[C@@H](CCCCN)C(=O)N[C@@H](CCCCN)C(=O)N[C@@H](CC(C)C)C(=O)N[C@@H](C)C(=O)N[C@@H](CCCCN)C(=O)O [P256, Myr-AKKLAK-acid] (Myristoyl-AKKLAK-OH) | increase fibroblast proliferation |  | 
5 | CCCCCCCCCCCCCC(=O)NCC(=O)N[C@@H](C)C(=O)N[C@@H](CCCNC(=N)N)C(=O)O [P257, Myr-GAR-acid] (Myristoyl-Gly-Ala-Arg-OH) | increase fibroblast proliferation |  | 
6 | CCCCCCCCCCCCCC(=O)NCC(=O)N[C@@H](CCCNC(=N)N)C(=O)N[C@@H](CCCCN)C(=O)NCC(=O)N[C@@H](CC(=O)O)C(=O)O [P266, Myr-GRKGD-acid] (Myristoyl-GRKGD-OH) | increase fibroblast proliferation |  | 
7 | CCCCCCCCCCCCCC(=O)N[C@H](CC(C)C)C(=O)N[C@H](CCCCN)C(=O)N[C@H](CCCCN)C(=O)N[C@H](C)C(=O)N[C@H](CC(C)C)C(=O)N[C@H](CCCCN)C(=O)O [P286, Myr-d-[LKKALK]-acid] (Myristoyl-[dL][dK][dK][dA][dL][dK]-OH) |  | ≤ 100 ppm | 
8 | CCCCCCCCCCCCCC(=O)N[C@@H](CCCCN)C(=O)N[C@@H](CCCCN)C(=O)N[C@@H](C)C(=O)N[C@@H](CC(C)C)C(N)=O [P291, Myr-KKAL-amide] (Myristoyl-KKAL-NH2) | increase fibroblast proliferation | ≤ 100 ppm | 
9 | CCCCCCCCCCCCCC(=O)N[C@@H](CCCCN)C(=O)N[C@@H](CCCCN)C(=O)NCC(=O)N[C@@H](CCC(=O)O)C(=O)N[C@@H](CCSC)C(=O)O [P293, Myr-KKGEM-acid] (Myristoyl-KKGEM-OH) | increase fibroblast proliferation |  | 
10 | CCCCCCCCCCCCCC(=O)N1CCC[C@H]1C(=O)N[C@@H](CCCCN)C(=O)N[C@@H](CCCCN)C(=O)N[C@@H](C)C(=O)N[C@@H](CC(C)C)C(=O)N[C@@H](CCCCN)C(N)=O [P364, Myr-PKKALK-amide] (Myristoyl-PKKALK-NH2) |  | ≤ 100 ppm | 
11 | CCCCCCCCCCCCCC(=O)N[C@@H](CCCCN)C(=O)N[C@@H](CCCCN)C(=O)N[C@@H](CC(C)C)C(=O)N[C@@H](C)C(=O)N[C@H](CCCCN)C(N)=O [P365, Myr-KKLA-[K]^D-amide] (Myristoyl-KKLA[dK]-NH2) |  | ≤ 100 ppm | 
12 | CCCCCCCCCCCCCC(=O)NCC(=O)N[C@@H](CCCNC(=N)N)C(=O)NCC(=O)N[C@@H](CC(=O)O)C(=O)N[C@@H](CO)C(N)=O [P382, Myr-GRGDS-amide] | increase fibroblast proliferation |  | 
13 | CCCCCCCC(=O)NCC(=O)N[C@@H](CCCNC(=N)N)C(=O)NCC(=O)N[C@@H](CC(=O)O)C(=O)N[C@@H](CO)C(N)=O [P387, Oct-GRGDS-amide] | increase fibroblast proliferation |  | 
14 | CCCCCCCCCCCCCC(=O)N[C@@H](CC(=O)O)C(=O)N[C@@H](C)C(=O)N[C@@H](CC(=O)O)C(=O)O [P388, Myr-DAD-acid] (Myristoyl-Asp-Ala-Asp-OH) | increase fibroblast proliferation |  | 
15 | CCCCCCCCCCCCCC(=O)N[C@@H](CC(=O)O)C(=O)N[C@@H](CC(=O)O)C(=O)N[C@@H](C)C(=O)N[C@@H](CC(=O)O)C(=O)O [P389, Myr-DDAD-acid] (Myristoyl-DDAD-OH) | increase fibroblast proliferation |  | 
16 | CCCCCCCCCCCCCCCC(=O)N[C@@H](C)C(=O)N[C@@H](C)C(=O)N[C@@H](CCCCN)C(=O)N[C@@H](CCCNC(=N)N)C(N)=O [P398, Pal-AAKR-amide] (Palmitoyl-AAKR-NH2) |  | ≤ 100 ppm | 
17 | CCCCCCCCCCCCCC(=O)N[C@@H](CCCCN)C(=O)N[C@H](C(=O)N[C@@H](C)C(=O)N[C@@H](CCCCN)C(=O)N[C@H](CCCCN)C(N)=O)[C@@H](C)CC [P401, Myr-KIAK-[K]^D-amide] (Myristoyl-KIAK[dK]-NH2) | increase fibroblast proliferation |  | 
18 | CCCCCCCCCCCCCC(=O)N[C@@H](CC(C)C)C(=O)N[C@@H](CCCCN)C(=O)N[C@@H](CCCCN)C(=O)N[C@@H](C)C(=O)N[C@@H](CC(C)C)C(=O)N[C@H](CCCCN)C(=O)O [P406, Myr-LKKAL-[K]^D-acid] (Myristoyl-LKKAL[dK]-OH) | increase fibroblast proliferation |  | 
19 | CCCCCCCCCCCCCC(=O)N[C@@H](CC(=O)O)C(=O)N[C@@H](CC(=O)O)C(=O)N[C@@H](CO)C(=O)N[C@@H](CO)C(=O)N[C@@H](CCCCN)C(=O)N[C@@H](CCCCN)C(N)=O [P411, Myr-DDSSKK-amide] (Myristoyl-DDSSKK-NH2) | increase fibroblast proliferation |  | 
20 | CCCCCCCCCCCCCC(=O)N[C@@H](CC(=O)O)C(=O)N[C@@H](CC(=O)O)C(=O)N[C@@H](CC(C)C)C(=O)N[C@@H](C)C(=O)N[C@@H](CCCCN)C(=O)N[C@@H](CCCCN)C(N)=O [P412, Myr-DDLAKK-amide] (Myristoyl-DDLAKK-NH2) | increase fibroblast proliferation |  | 
21 | CCCCCCCCCCCCCC(=O)N[C@@H](CCCCN)C(=O)N[C@@H](CC(C)C)C(=O)N[C@@H](C)C(=O)N[C@@H](CCCCN)C(=O)N[C@H](CCCCN)C(N)=O [P414, Myr-KLAK-[K]^D-amide] (Myristoyl-KLAK[dK]-NH2) | increase fibroblast proliferation |  | 
22 | CCCCCCCCCCCCCC(=O)N[C@H](C(=O)N[C@H](C(=O)N[C@H](C(=O)N[C@H](C(=O)N[C@H](C(=O)N[C@@H](CCCCN)C(N)=O)[C@@H](C)CC)[C@@H](C)CC)[C@@H](C)CC)[C@@H](C)CC)[C@@H](C)CC [P417, Myr-IIIIIK-amide] (Myristoyl-IIIIIK-NH2) | increase fibroblast proliferation |  | 
23 | CCCCCCCCCCCCCC(=O)N[C@H](C(=O)N[C@H](C(=O)N[C@H](C(=O)N[C@@H](CCCCN)C(=O)N[C@@H](CCCCN)C(N)=O)[C@@H](C)CC)[C@@H](C)CC)[C@@H](C)CC [P418, Myr-IIIKK-amide] (Myristoyl-IIIKK-NH2) | increase fibroblast proliferation |  | 
24 | Dod-KKALK-amide [P328] | increase fibroblast proliferation |  | 
25 | Myr-K-[K]^D-A-[L]^D-amide [P361] | increase fibroblast proliferation |  | 
26 | Myr-KGL-[K]^D-amide (Myristoyl-KGL[dK]-NH2; SMILES CCCCCCCCCCCCCC(=O)N[C@@H](CCCCN)C(=O)NCC(=O)N[C@@H](CC(C)C)C(=O)N[C@H](CCCCN)C(N)=O) [P405] | increase fibroblast proliferation |  | 
27 | Myr-KKALKL-amide (Myristoyl-KKALKL-NH2; SMILES CCCCCCCCCCCCCC(=O)N[C@@H](CCCCN)C(=O)N[C@@H](CCCCN)C(=O)N[C@@H](C)C(=O)N[C@@H](CC(C)C)C(=O)N[C@@H](CCCCN)C(=O)N[C@@H](CC(C)C)C(N)=O) [P380] | increase fibroblast proliferation |  | 
28 | Pal-AARK-amide (Palmitoyl-AARK-NH2; SMILES CCCCCCCCCCCCCCCC(=O)N[C@@H](C)C(=O)N[C@@H](C)C(=O)N[C@@H](CCCNC(=N)N)C(=O)N[C@@H](CCCCN)C(N)=O) [P397] | increase fibroblast proliferation |  | 
29 | Pal-KKLAK-amide (Palmitoyl-KKLAK-NH2; SMILES CCCCCCCCCCCCCCCC(=O)N[C@@H](CCCCN)C(=O)N[C@@H](CCCCN)C(=O)N[C@@H](CC(C)C)C(=O)N[C@@H](C)C(=O)N[C@@H](CCCCN)C(N)=O) [P333] | increase fibroblast proliferation |  | 
30 | Pal-VGVAPG-amide (Palmitoyl-VGVAPG-NH2; SMILES CCCCCCCCCCCCCCCC(=O)N[C@H](C(=O)NCC(=O)N[C@H](C(=O)N[C@@H](C)C(=O)N1CCC[C@H]1C(=O)NCC(N)=O)C(C)C)C(C)C) [P247] |  |  | at least 30%
